ChEMBL document CHEMBL4507278 (2021)

Legend:
[1] = target: Calcium-dependent protein kinase 1 (Plasmodium falciparum) (UniProt P62344); conditions: Compound concentration 1000.0 nM
[2] = target: Tyrosine-protein kinase Tec (Homo sapiens) (UniProt P42680); conditions: Compound concentration 1000.0 nM
[3] = target: Myosin light chain kinase 2, skeletal/cardiac muscle (Homo sapiens) (UniProt Q9H1R3); conditions: Compound concentration 1000.0 nM
[4] = target: Activin receptor type-2B (Homo sapiens) (UniProt Q13705); conditions: Compound concentration 1000.0 nM
[5] = target: Calcium/calmodulin-dependent protein kinase type 1B (Homo sapiens) (UniProt Q6P2M8); conditions: Compound concentration 1000.0 nM
[6] = target: cGMP-dependent protein kinase 2 (Homo sapiens) (UniProt Q13237); conditions: Compound concentration 1000.0 nM
[7] = target: Protein kinase C delta type (Homo sapiens) (UniProt Q05655); conditions: Compound concentration 1000.0 nM
[8] = target: Mitogen-activated protein kinase kinase kinase 4 (Homo sapiens) (UniProt Q9Y6R4); conditions: Compound concentration 1000.0 nM
[9] = target: Dual specificity tyrosine-phosphorylation-regulated kinase 1B (Homo sapiens) (UniProt Q9Y463); conditions: Compound concentration 1000.0 nM
[10] = target: Serine/threonine-protein kinase 16 (Homo sapiens) (UniProt O75716); conditions: Compound concentration 1000.0 nM
[11] = target: Serine/threonine-protein kinase PAK 2 (Homo sapiens) (UniProt Q13177); conditions: Compound concentration 1000.0 nM
[12] = target: Serine/threonine-protein kinase RIO2 (Homo sapiens) (UniProt Q9BVS4); conditions: Compound concentration 1000.0 nM
[13] = tested on: Epidermal growth factor receptor (Homo sapiens), P00533 [T790M]; conditions: Compound concentration 1000.0 nM
[14] = target: Serine/threonine-protein kinase 3 (Homo sapiens) (UniProt Q13188); conditions: Compound concentration 1000.0 nM
[15] = target: Serine/threonine-protein kinase 24 (Homo sapiens) (UniProt Q9Y6E0); conditions: Compound concentration 1000.0 nM
[16] = target: Epithelial discoidin domain-containing receptor 1 (Homo sapiens) (UniProt Q08345); conditions: Compound concentration 1000.0 nM
Sequence of Epithelial discoidin domain-containing receptor 1 (Homo sapiens) (Q08345 whole entry, the tested form may be a part, canonical isoform): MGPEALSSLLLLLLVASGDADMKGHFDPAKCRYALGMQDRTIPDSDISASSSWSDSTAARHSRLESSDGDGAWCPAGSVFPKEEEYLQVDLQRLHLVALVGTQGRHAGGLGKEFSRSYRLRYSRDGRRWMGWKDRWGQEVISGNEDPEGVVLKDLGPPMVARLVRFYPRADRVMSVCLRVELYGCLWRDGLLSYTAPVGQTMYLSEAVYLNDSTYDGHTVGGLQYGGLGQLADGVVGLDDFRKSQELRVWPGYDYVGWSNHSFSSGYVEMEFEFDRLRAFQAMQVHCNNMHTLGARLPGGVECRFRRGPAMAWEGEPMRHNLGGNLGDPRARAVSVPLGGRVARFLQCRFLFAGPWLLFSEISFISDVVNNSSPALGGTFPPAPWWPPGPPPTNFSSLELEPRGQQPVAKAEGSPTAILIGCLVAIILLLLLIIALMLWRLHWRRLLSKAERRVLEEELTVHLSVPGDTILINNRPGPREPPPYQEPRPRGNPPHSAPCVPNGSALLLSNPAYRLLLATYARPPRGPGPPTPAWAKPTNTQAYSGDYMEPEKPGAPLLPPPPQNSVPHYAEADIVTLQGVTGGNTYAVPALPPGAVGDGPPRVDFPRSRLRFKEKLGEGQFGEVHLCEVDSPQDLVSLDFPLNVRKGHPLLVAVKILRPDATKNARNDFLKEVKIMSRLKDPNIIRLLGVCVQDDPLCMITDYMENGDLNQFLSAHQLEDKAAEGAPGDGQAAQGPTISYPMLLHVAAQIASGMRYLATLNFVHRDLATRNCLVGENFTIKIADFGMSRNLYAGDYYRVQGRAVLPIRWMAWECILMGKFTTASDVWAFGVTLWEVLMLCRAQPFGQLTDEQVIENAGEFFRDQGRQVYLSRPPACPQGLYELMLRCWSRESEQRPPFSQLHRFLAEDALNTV

[17] = target: Phosphatidylinositol 4,5-bisphosphate 3-kinase catalytic subunit alpha isoform (Homo sapiens) (UniProt P42336); conditions: Compound concentration 1000.0 nM
Sequence of Phosphatidylinositol 4,5-bisphosphate 3-kinase catalytic subunit alpha isoform (Homo sapiens) (P42336 whole entry, canonical isoform): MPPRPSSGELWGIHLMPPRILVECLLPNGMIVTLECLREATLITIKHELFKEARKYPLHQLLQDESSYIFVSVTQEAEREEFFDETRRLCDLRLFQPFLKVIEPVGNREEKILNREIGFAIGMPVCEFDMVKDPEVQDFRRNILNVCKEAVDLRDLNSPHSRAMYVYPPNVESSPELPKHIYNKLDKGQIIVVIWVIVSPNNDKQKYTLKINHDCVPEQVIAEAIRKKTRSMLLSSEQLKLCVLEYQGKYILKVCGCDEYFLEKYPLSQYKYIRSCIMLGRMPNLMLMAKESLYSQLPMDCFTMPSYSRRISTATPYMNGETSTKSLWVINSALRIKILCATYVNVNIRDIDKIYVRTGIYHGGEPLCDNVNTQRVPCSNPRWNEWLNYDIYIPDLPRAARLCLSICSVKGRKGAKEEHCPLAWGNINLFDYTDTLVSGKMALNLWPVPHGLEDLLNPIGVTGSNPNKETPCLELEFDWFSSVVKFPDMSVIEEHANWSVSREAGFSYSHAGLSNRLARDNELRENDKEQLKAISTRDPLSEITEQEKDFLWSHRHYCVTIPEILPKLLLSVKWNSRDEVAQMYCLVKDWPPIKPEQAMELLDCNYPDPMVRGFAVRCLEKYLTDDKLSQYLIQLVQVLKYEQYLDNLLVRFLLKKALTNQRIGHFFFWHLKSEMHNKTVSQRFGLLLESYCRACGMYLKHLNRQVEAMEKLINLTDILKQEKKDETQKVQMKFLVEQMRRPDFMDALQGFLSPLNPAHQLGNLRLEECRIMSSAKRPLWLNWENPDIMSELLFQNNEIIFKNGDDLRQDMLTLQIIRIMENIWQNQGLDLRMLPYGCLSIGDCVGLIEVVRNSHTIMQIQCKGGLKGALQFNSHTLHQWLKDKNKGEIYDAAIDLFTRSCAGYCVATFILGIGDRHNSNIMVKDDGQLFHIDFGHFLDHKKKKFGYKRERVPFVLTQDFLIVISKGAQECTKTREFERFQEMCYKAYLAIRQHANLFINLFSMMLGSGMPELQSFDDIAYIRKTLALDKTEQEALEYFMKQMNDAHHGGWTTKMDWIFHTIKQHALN

[18] = target: Dual specificity mitogen-activated protein kinase kinase 6 (Homo sapiens) (UniProt P52564); conditions: Compound concentration 1000.0 nM
Sequence of Dual specificity mitogen-activated protein kinase kinase 6 (Homo sapiens) (P52564 whole entry): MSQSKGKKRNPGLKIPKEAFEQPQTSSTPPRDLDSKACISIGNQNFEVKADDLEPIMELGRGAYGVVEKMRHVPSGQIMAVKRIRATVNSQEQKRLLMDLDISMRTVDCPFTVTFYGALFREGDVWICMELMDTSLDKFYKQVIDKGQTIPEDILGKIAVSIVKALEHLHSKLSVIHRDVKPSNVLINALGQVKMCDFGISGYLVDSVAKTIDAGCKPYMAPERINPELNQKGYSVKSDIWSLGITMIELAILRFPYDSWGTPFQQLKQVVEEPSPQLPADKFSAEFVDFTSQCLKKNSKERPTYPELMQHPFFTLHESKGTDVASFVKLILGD

[19] = target: Transient receptor potential cation channel subfamily M member 6 (Homo sapiens) (UniProt Q9BX84); conditions: Compound concentration 1000.0 nM
[20] = target: Serine/threonine-protein kinase 36 (Homo sapiens) (UniProt Q9NRP7); conditions: Compound concentration 1000.0 nM
[21] = target: Cyclin-dependent kinase 9 (Homo sapiens) (UniProt P50750); conditions: Compound concentration 1000.0 nM
[22] = target: Ribosomal protein S6 kinase alpha-4 (Homo sapiens) (UniProt O75676); conditions: Compound concentration 1000.0 nM
Sequence of Ribosomal protein S6 kinase alpha-4 (Homo sapiens) (O75676 whole entry, looked up): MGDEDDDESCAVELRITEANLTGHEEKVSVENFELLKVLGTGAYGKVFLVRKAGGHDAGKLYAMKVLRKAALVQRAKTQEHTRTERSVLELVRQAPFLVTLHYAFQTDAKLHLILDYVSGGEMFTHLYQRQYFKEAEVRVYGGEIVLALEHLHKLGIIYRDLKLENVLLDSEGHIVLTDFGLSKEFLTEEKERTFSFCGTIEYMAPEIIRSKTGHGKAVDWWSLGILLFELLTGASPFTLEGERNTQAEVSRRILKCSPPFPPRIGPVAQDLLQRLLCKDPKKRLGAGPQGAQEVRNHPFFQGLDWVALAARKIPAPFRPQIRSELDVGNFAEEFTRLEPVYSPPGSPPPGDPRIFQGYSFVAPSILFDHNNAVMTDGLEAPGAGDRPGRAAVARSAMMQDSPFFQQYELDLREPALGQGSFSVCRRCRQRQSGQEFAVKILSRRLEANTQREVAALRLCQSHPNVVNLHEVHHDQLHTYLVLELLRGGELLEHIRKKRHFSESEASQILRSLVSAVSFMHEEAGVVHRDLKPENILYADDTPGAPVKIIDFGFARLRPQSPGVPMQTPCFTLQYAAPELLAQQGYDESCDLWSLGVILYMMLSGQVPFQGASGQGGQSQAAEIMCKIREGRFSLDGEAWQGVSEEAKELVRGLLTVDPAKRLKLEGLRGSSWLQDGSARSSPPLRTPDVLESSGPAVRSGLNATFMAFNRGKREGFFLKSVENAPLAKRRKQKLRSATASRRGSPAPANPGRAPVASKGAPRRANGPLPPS

[23] = target: Cyclin-dependent kinase 5 (Homo sapiens) (UniProt Q00535); conditions: Compound concentration 1000.0 nM
Sequence of Cyclin-dependent kinase 5 (Homo sapiens) (Q00535 whole entry, looked up, canonical isoform): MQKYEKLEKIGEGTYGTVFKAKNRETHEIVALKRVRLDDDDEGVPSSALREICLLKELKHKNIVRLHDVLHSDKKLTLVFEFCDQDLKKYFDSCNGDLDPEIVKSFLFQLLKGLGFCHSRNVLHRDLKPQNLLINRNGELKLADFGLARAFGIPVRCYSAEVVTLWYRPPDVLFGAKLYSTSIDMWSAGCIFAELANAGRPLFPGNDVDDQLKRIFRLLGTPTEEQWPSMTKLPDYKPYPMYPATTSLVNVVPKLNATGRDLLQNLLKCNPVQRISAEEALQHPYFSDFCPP

[24] = target: Casein kinase I isoform epsilon (Homo sapiens) (UniProt P49674); conditions: Compound concentration 1000.0 nM
Sequence of Casein kinase I isoform epsilon (Homo sapiens) (P49674 whole entry, looked up, canonical isoform): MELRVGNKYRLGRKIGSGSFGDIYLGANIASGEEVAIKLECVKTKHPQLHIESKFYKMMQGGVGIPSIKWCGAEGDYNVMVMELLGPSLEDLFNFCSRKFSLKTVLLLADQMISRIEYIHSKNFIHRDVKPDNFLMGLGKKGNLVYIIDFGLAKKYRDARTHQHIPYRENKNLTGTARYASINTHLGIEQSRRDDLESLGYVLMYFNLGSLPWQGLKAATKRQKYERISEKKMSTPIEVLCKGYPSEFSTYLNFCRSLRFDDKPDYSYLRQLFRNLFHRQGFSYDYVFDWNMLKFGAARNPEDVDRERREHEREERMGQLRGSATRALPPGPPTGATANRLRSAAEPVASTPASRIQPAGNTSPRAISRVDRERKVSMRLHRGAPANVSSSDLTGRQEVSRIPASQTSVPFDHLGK

[25] = target: Serine/threonine-protein kinase haspin (Homo sapiens) (UniProt Q8TF76); conditions: Compound concentration 1000.0 nM
[26] = target: Interleukin-1 receptor-associated kinase 3 (Homo sapiens) (UniProt Q9Y616); conditions: Compound concentration 1000.0 nM
[27] = target: Serine/threonine-protein kinase DCLK1 (Homo sapiens) (UniProt O15075); conditions: Compound concentration 1000.0 nM
[28] = target: MAP/microtubule affinity-regulating kinase 3 (Homo sapiens) (UniProt P27448); conditions: Compound concentration 1000.0 nM
[29] = target: Mitogen-activated protein kinase 4 (Homo sapiens) (UniProt P31152); conditions: Compound concentration 1000.0 nM
[30] = target: D(2) dopamine receptor (Homo sapiens) (UniProt P14416); conditions: Compound concentration 10.0 uM
[31] = target: Phosphatidylinositol 4,5-bisphosphate 3-kinase catalytic subunit delta isoform (Homo sapiens) (UniProt O00329); conditions: Compound concentration 1000.0 nM
[32] = target: Insulin receptor (Homo sapiens) (UniProt P06213); conditions: Compound concentration 1000.0 nM
[33] = target: Serine/threonine-protein kinase BRSK2 (Homo sapiens) (UniProt Q8IWQ3); conditions: Compound concentration 1000.0 nM
[34] = target: Mitogen-activated protein kinase kinase kinase kinase 4 (Homo sapiens) (UniProt O95819); conditions: Compound concentration 1000.0 nM
[35] = target: Serine/threonine-protein kinase Nek6 (Homo sapiens) (UniProt Q9HC98); conditions: Compound concentration 1000.0 nM
[36] = target: 5-hydroxytryptamine receptor 1B (Homo sapiens) (UniProt P28222); conditions: Compound concentration 10.0 uM
[37] = target: Serine/threonine-protein kinase 17B (Homo sapiens) (UniProt O94768); conditions: Compound concentration 1000.0 nM
[38] = target: Receptor-type tyrosine-protein kinase FLT3 (Homo sapiens) (UniProt P36888); conditions: Compound concentration 1000.0 nM
Sequence of Receptor-type tyrosine-protein kinase FLT3 (Homo sapiens) (P36888 whole entry): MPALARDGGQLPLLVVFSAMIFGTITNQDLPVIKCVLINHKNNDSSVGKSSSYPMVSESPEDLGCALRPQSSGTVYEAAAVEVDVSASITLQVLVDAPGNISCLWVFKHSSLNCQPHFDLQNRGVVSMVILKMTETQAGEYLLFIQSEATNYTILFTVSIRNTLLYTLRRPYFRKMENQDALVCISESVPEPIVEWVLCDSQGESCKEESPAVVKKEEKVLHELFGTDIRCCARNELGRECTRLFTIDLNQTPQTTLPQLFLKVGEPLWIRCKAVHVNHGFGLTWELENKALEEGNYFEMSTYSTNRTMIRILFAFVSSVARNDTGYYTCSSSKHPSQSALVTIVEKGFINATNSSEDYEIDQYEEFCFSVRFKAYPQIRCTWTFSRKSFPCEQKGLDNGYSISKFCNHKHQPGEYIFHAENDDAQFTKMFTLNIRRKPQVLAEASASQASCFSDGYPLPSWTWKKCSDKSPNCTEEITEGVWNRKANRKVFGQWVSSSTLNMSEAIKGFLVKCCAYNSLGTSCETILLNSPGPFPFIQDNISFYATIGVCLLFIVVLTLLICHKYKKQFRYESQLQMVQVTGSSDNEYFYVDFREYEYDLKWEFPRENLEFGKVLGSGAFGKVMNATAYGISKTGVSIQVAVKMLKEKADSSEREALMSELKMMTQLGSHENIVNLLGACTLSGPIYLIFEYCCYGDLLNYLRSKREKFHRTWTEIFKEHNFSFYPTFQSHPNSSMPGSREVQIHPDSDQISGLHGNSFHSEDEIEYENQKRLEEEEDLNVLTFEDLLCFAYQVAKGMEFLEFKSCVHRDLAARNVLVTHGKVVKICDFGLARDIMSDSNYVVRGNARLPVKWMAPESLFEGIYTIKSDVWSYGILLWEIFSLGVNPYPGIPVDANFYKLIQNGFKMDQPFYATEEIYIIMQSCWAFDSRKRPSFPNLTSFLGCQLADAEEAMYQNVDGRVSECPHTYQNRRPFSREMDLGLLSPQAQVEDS

[39] = target: Mitogen-activated protein kinase 11 (Homo sapiens) (UniProt Q15759); conditions: Compound concentration 1000.0 nM
[40] = target: Wee1-like protein kinase (Homo sapiens) (UniProt P30291); conditions: Compound concentration 1000.0 nM
[41] = target: 5-hydroxytryptamine receptor 7 (Homo sapiens) (UniProt P34969); conditions: Compound concentration 10.0 uM
[42] = tested on: Hepatocyte growth factor receptor (Homo sapiens), P08581 [M1250T]; conditions: Compound concentration 1000.0 nM
[43] = target: Ephrin type-A receptor 2 (Homo sapiens) (UniProt P29317); conditions: Compound concentration 1000.0 nM
[44] = target: Protein-tyrosine kinase 2-beta (Homo sapiens) (UniProt Q14289); conditions: Compound concentration 1000.0 nM
[45] = target: Receptor-type tyrosine-protein kinase FLT3 (Homo sapiens) (UniProt P36888); conditions: Compound concentration 1000.0 nM; remark: listed apart in the source

CS(=O)(=O)NCC[C@H](NC(=O)c1cncc2c1cnn2-c1ccc(F)cc1)c1ccnc(S(C)(=O)=O)c1 [BI 9307]
inactive: residual activity [1] 99% | residual activity [2] 96% | residual activity [3] 93% | residual activity [4] 90% | residual activity [5] 85% | residual activity [6] 87% | residual activity [7] 76% | residual activity [8] 84% | residual activity [9] 100% | residual activity [10] 99% | residual activity [11] 71% | residual activity [12] 100% | residual activity [13] 90% | residual activity [14] 100% | residual activity [15] 100% | residual activity [16] 92% | residual activity [17] 83% | residual activity [18] 82% | residual activity [19] 100% | residual activity [20] 100% | residual activity [21] 100% | residual activity [22] 100% | residual activity [23] 100% | residual activity [24] 100% | residual activity [25] 100% | residual activity [26] 89% | residual activity [27] 94% | residual activity [28] 92% | residual activity [29] 100% | inhibition [30] -5.26% | residual activity [31] 100% | residual activity [32] 92% | residual activity [33] 77% | residual activity [34] 86% | residual activity [35] 100% | inhibition [36] 47.7% | residual activity [37] 100% | residual activity [38] 100% | residual activity [39] 100% | residual activity [40] 99% | inhibition [41] 4.81% | residual activity [42] 88% | residual activity [43] 100% | residual activity [44] 84% | residual activity [45] 93%

CS(=O)(=O)c1cc(C2(NC(=O)c3cncc4c3cnn4-c3ccc(F)cc3)CC2)ccn1 [BI 639667]
inactive: residual activity [1] 99% | residual activity [2] 99% | residual activity [3] 100% | residual activity [4] 100% | residual activity [5] 78% | residual activity [6] 89% | residual activity [7] 100% | residual activity [8] 87% | residual activity [9] 74% | residual activity [10] 93% | residual activity [11] 100% | residual activity [12] 94% | residual activity [13] 100% | residual activity [14] 100% | residual activity [15] 82% | residual activity [16] 100% | residual activity [17] 100% | residual activity [18] 74% | residual activity [19] 91% | residual activity [20] 100% | residual activity [21] 91% | residual activity [22] 81% | residual activity [23] 100% | residual activity [24] 84% | residual activity [25] 90% | residual activity [26] 59% | residual activity [27] 75% | residual activity [28] 100% | residual activity [29] 79% | inhibition [30] 6.62% | residual activity [31] 100% | residual activity [32] 100% | residual activity [33] 84% | residual activity [34] 88% | residual activity [35] 100% | inhibition [36] 13.5% | residual activity [37] 83% | residual activity [38] 93% | residual activity [39] 100% | residual activity [40] 100% | inhibition [41] 10.5% | residual activity [42] 82% | residual activity [43] 100% | residual activity [44] 100% | residual activity [45] 100%
